Legend:
HCT-8 cells = assay: Human Colon Carcinoma Clonogenic Assay, HCT-8; assay type: cell-based; settings: HCT-8, 2 days with drug, colonies after approximately 2 weeks
Description: (§1) Human Colon Carcinoma Clonozenic Assay. Human colon carcinoma cells are seeded into 6 well plates in volumes of 3 mL and allowed to incubate overnight (37° C., 5% CO2, 95% air). SW-620 cells are seeded at 7×10^5 per well; HCT-8 cells are seeded at 5×10^5 per well; HT-29 cells are seeded at 4×10^5 cells per well. Serially diluted drugs are prepared at 200 times the final concentration, and 15 μL are added to each of duplicate wells. Cells are incubated with drug for 2 days, rinsed once with 1 mL of trypsin+EDTA, and then trypsinized with the same trypsin solution. After trituration and centrifugation at 750×g for 3 minutes, the cells are suspended in serum-free growth medium and counted using an electronic particle counter. An agarose mixture appropriate for the cloning of each cell line is made using 10% fetal bovine serum in growth medium (SW-620-0.35% agarose, HCT-8 and HT-29-0.4% agarose). […] One; milliliter of each of these cell suspensions is added to duplicate wells of 6 well plates previously prepared with 10% serum/growth medium/1% agarose plugs. The cells in these plates are incubated for approximately 2 weeks in the incubator and stained with 1 mL per well of 1 mg/mL iodonitrotetrazolium violet stain. The visible colonies are counted with an electronic optical colony counter and the clonogenicity of treated cells calculated in comparison to untreated control cells.

[1] = target: T1, EGFr (Human EGF receptor tyrosine kinase) (Homo sapiens, UniProt P00533); assay: EGFr tyrosine kinase assay; assay type: biochemical; settings: 10 μM ATP
T1 construct: Human EGF receptor tyrosine kinase is isolated from A431 human epidermoid carcinoma cells; endogenous in cells; host or cells: A431 human epidermoid carcinoma cells (detergent lysate, Q Sepharose fractions)
T1 sequence (P00533 25-1210): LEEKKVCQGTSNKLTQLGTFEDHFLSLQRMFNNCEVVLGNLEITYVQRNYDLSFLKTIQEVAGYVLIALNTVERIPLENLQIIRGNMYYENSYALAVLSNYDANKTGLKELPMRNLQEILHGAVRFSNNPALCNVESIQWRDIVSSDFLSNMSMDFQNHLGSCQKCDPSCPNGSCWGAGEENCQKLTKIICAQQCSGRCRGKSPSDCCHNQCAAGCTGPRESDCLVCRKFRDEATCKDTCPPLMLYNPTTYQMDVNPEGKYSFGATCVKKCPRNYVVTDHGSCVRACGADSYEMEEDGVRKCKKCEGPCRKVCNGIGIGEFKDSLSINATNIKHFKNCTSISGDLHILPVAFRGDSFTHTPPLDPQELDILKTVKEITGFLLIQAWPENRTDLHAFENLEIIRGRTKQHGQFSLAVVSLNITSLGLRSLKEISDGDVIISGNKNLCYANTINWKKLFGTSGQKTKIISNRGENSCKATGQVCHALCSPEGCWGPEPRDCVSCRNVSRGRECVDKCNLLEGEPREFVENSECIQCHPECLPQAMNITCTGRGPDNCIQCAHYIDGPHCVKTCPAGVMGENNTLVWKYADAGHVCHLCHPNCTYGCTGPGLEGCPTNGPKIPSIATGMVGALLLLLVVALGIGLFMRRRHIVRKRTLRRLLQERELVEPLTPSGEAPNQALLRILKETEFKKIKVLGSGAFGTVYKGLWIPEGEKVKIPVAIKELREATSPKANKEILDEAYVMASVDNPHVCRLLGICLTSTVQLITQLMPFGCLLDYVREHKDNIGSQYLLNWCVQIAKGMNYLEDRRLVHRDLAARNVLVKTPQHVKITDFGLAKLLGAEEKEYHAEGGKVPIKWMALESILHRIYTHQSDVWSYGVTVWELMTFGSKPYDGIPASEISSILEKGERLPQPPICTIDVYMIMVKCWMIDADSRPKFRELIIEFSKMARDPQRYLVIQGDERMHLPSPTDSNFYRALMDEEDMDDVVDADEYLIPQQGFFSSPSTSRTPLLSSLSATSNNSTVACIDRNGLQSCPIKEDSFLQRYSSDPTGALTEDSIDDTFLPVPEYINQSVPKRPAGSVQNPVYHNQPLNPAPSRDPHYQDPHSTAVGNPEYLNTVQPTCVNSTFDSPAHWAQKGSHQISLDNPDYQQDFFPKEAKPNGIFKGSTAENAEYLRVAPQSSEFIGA
Description: Epidermal Growth Factor Receptor (EGFr). Human EGF receptor tyrosine kinase is isolated from A431 human epidermoid carcinoma cells by the following method. Cells were grown in roller bottles in 50% Dulbecco's Modified Eagle medium and 50% HAM F-12 nutrient media (Gibco) containing 10% fetal calf serum. Approximately 10^9 cells are lysed in two volumes of buffer containing 20 mM 2-(4N-[2-[…]]piperazin-1-yl)ethanesulfonic acid (Hepes), pH 7.4, 5 mM ethylene glycol bis(2-aminoethyl ether) N,N,N',N'-tetraacetic acid (EGTA), 1% Triton X-100, 10% glycerol, 0.1 mM sodium orthovanadate, 5 mM sodium fluoride, 4 mM pyrophosphate, 4 mM benzamide, 1 mM dithiothreitol (DTT), 80 μg/mL aprotinin, 40 μg/mL leupeptin, and 1 mM phenylmethylsulfonyl fluoride (PMSF). After centrifugation at 25,000×g for 10 minutes, the supernatant is applied to a fast Q sepharose column (Pharmacia) and eluted with a linear gradient from 0.1 M NaCl to 0.4 M NaCl in 50 mM Hepes, 10% glycerol, pH 7.4. Enzyme active fractions are pooled, divided into aliquots, and stored at -100° C.
EGFr. Enzyme assays for IC50 determinations are performed in 96-well filter plates (Millipore MADVN6550). The total volume is 0.1 mL containing 20 mM Hepes, pH 7.4, 50 μM sodium vanadate, 40 mM magnesium chloride, 10 μM ATP containing 0.5 μCi of [^32 P]ATP, 20 μg of polyglutamic acid/tyrosine (Sigma Chemical Co., St. Louis, Mo.), 10 ng of EGF receptor tyrosine kinase and appropriate dilutions of inhibitor. All components except the ATP are added to the well, and the plate is incubated with shaking for 10 minutes at 25° C. The reaction is started by adding [^32 P]ATP, and the plate is incubated at 25° C. for 10 minutes. The reaction is terminated by addition of 0.1 mL of 20% trichloroacetic acid (TCA). The plate is kept at 4° C. for at least 15 minutes to allow the substrate to precipitate. The wells are then washed five times with 0.2 mL of 10% TCA, and ^32 P incorporation is determined with a Wallac beta plate counter.

SW-620 cells = assay: Human Colon Carcinoma Clonogenic Assay, SW-620; assay type: cell-based; settings: SW-620, 2 days with drug, colonies after approximately 2 weeks
Description: as §1

[2] = target: MAP Kinase Pathway (GST-MEK / GST-MAPK); assay: Cascade Assay for Inhibitors of the MAP Kinase Pathway (APK Assay); assay type: biochemical; settings: 50 μM [γ32P]ATP; compounds assessed at 10 μM
Description: Cascade Assay for Inhibitors of the MAP Kinase Pathway (APK Assay)
Incorporation of ^32 P into myelin basic protein (MBP) is assayed in the presence of a glutathione; S-transferase fusion protein containing p44MAP kinase (GST-MAPK) and a glutathione; S-transferase fusion protein containing p45MEK (GST-MEK). The assay solution contains 20 mM HEPES, pH 7.4, 10 mM magnesium chloride, 1 mM manganese chloride, 1 mM EGTA, 50 μM [γ^32 P]ATP, 10 μg GST-MEK, 0.5 μg GST-MAPK and 40 μg MBP in a final volume of 100 μL. Reactions are stopped after 20 minutes by addition of trichloroacetic acid and filtered through a GF/C filter mat. ^32 P retained on the filter mat is determined using a 1205 betaplate. Compounds are assessed at 10 μM for ability to inhibit incorporation of ^32 P.
To ascertain whether compounds are inhibiting GST-MEK or GST MAPK, two additional protocols are employed. In the first protocol, compounds are added to tubes containing GST-MEK, followed by addition of GST-MAPK, MBP and [γ^32 P]ATP. In the second protocol, compounds are added to tubes containing both GST-MEK and GST-MAPK, followed by MBP and [γ^32 P]ATP.
Compounds that show activity in both protocols are scored as MAPK inhibitors, while compounds showing activity in only the first protocol are scored as MEK inhibitors.

## CCN(CC)CCCCNc1cc2c(cn1)cc(-c1c(Cl)cccc1Cl)c(=O)n2C [Example F, 3-(2,6-dichlorophenyl)-7-[4-(diethylamino)butylamino]-1-methyl-1H-[1,6]naphthyridin-2-one]
HCT-8 cells
  IC50: > 5 µM
[1]
  IC50: 3.8 µM
SW-620 cells
  IC50: > 5 µM
[2]
  IC50: > 10 µM

## CN1CCN(CCCNc2cc3c(cn2)cc(-c2c(Cl)cccc2Cl)c(=O)n3C)CC1 [Example H, 3-(2,6-dichlorophenyl)-1-methyl-7-[3-(4-methylpiperazin-1-yl)propylamino]-1H-[1,6]naphthyridin-2-one]
HCT-8 cells
  IC50: > 5 µM
[1]
  IC50: 3.2 µM
[2]
  IC50: 10 µM

## CCN(CC)CCOc1ccc(Nc2cc3c(cn2)cc(-c2c(Cl)cccc2Cl)c(=O)n3C)cc1 [Example P, 3-(2,6-dichlorophenyl)-7-[(4-(2-(diethylamino)ethoxy)phenyl)amino]-1-methyl-1H-[1,6]naphthyridin-2-one]
HCT-8 cells
  IC50: > 5 µM
[1]
  IC50: 0.59 µM

## CN1CCN(CCOc2ccc(Nc3cc4c(cn3)cc(-c3c(Cl)cccc3Cl)c(=O)n4C)cc2)CC1 [Example S, 3-(2,6-dichlorophenyl)-1-methyl-7-[(4-(2-(4-methylpiperazin-1-yl)ethoxy)phenyl)amino]-1H-[1,6]naphthyridin-2-one]
SW-620 cells
  IC50: 2.8 µM

— patent publication US6150359A, “Naphthyridinones for inhibiting protein tyrosine kinase and cell cycle kinase mediated cellular proliferation” (Warner-Lambert Company, priority 2000, dated 2000)
